# Test results as given in paper PMC4227742 (Journal of the American Chemical Society, 2014).
# Legend:
# pCAF [1] = molecular target: T1, pCAF (Homo sapiens, UniProt Q92831); experiment: Labeling of pCAF in HEK-293 overexpression extracts; format: binding
# Gcn5 [2] = molecular target: T2, Gcn5 (Homo sapiens, UniProt Q92830); experiment: Competitive substrate profiling: Gcn5 labeling by probe 2 vs acyl-CoAs; format: binding; settings: 2 (10 μM), acyl-CoAs (1000 μM)
# Gcn5 [3] = molecular target: T2, Gcn5; experiment: LC–MS/MS verification of Gcn5 acyltransferase activity; format: biochemical; settings: LC–MS/MS analysis, Supplementary Figure S10
# human pCAF = settings: cited from earlier work
# p300 = molecular target: T3, p300 (Homo sapiens, UniProt Q09472); experiment: Photoaffinity/click fluorescent labeling of recombinant KAT, SDS-PAGE; format: binding; settings: probe 1 μM; mixture of p300, pCAF, Mof
# T3 sequence (Q09472 1284-1673): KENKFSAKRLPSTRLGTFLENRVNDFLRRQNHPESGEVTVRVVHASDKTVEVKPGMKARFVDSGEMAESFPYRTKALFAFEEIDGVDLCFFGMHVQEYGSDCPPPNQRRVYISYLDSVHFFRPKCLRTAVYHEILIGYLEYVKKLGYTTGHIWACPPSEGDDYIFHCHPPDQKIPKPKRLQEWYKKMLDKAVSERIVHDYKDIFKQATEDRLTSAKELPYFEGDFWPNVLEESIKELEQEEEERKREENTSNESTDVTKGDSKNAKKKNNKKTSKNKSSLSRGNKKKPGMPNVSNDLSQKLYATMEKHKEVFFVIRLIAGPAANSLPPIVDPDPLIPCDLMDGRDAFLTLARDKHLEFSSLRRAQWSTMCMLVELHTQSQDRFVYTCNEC
# pCAF [4] = molecular target: T1, pCAF; experiment: as above; format: binding; settings: for Labeling of pCAF in KAT cocktail: probe 1 μM, mixture of p300, pCAF, Mof; for Fluorescent detection of pCAF at high probe concentration: 1 μM probe
# Mof (MYST1) = molecular target: T4, Mof (MYST1) (Homo sapiens, UniProt Q9H7Z6); experiment: as above; format: binding; settings: for Labeling of Mof in KAT cocktail: probe 1 μM, mixture of p300, pCAF
# T4 sequence (Q9H7Z6 147-449): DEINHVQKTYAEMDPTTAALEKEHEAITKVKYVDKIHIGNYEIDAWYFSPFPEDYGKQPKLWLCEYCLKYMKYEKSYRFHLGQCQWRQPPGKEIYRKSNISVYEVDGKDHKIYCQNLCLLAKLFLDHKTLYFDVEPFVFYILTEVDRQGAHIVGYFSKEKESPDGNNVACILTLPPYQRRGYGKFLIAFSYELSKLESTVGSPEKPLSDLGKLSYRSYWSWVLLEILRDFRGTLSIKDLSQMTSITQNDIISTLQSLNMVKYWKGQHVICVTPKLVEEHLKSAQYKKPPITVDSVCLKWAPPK
# Mof = molecular target: T5, Mof (Homo sapiens, UniProt Q9H7Z6); experiment: Competition of Mof labeling by probe 3; format: binding; settings: excess competitor (100 μM), probe 3 1 μM
# T5 sequence (Q9H7Z6 147-449): T4 sequence (Q9H7Z6 147-449)
# pCAF [5] = molecular target: T1, pCAF; settings: excess competitor (100 μM), probe 2 1 μM
# pCAF [6] = settings: read-out: literature IC50; cited from earlier work
# pCAF [7] = molecular target: T1, pCAF; experiment: Detection of recombinant pCAF spiked into HeLa cell proteome; format: binding
# [8] = probe 1–10 μM, 365 nm, click with fluorescent azide
molecule,measurement,setting,value
"H3K14-CoA [compound 5, reference compound]",Competition of pCAF labeling by 2 in HEK-293 overexpression extracts,pCAF [1]; competitor,sensitive to competition
CCC(=O)SCCNC(=O)CCNC(=O)[C@H](O)C(C)(C)COP(=O)(O)OP(=O)(O)OC[C@H]1O[C@@H](n2cnc3c(N)ncnc32)[C@H](O)[C@@H]1OP(=O)(O)O [propionyl-CoA],Competition with 2 for active site occupancy of Gcn5,Gcn5 [2],antagonized labeling
same,Use as substrate by Gcn5,Gcn5 [3],utilized
CC(=O)SCCNC(=O)CCNC(=O)[C@H](O)C(C)(C)COP(=O)(O)OP(=O)(O)OC[C@H]1O[C@@H](n2cnc3c(N)ncnc32)[C@H](O)[C@@H]1OP(=O)(O)O [acetyl-CoA],Competition with 2 for active site occupancy of Gcn5,Gcn5 [2],efficiently competed labeling
CC(C)(COP(=O)(O)OP(=O)(O)OC[C@H]1O[C@@H](n2cnc3c(N)ncnc32)[C@H](O)[C@@H]1OP(=O)(O)O)[C@@H](O)C(=O)NCCC(=O)NCCSC(=O)CC(=O)O [malonyl-CoA],Use as substrate by pCAF,human pCAF,not utilized as a substrate
CC=CC(=O)SCCNC(=O)CCNC(=O)[C@H](O)C(C)(C)COP(=O)(O)OP(=O)(O)OC[C@H]1O[C@@H](n2cnc3c(N)ncnc32)[C@H](O)[C@@H]1OP(=O)(O)O [crotonyl-CoA],Competition with 2 for active site occupancy of Gcn5,Gcn5 [2],did not impede labeling
CCCC(=O)SCCNC(=O)CCNC(=O)[C@H](O)C(C)(C)COP(=O)(O)OP(=O)(O)OC[C@H]1O[C@@H](n2cnc3c(N)ncnc32)[C@H](O)[C@@H]1OP(=O)(O)O [butyryl-CoA],Competition with 2 for active site occupancy of Gcn5,Gcn5 [2],partial antagonist
same,Use as substrate by Gcn5,Gcn5 [3],utilized
H4K16-CoA-BPyne [compound 3],Labeling of p300 in KAT cocktail,p300,fainter labeling
same,Labeling of pCAF in KAT cocktail,pCAF [4],fainter labeling
same,Labeling of Mof in KAT cocktail,Mof (MYST1),most strongly labeled
same,Fluorescent labeling of purified recombinant Mof,Mof (MYST1); [8],reacted effectively
"CC(=O)N[C@@H](CCCCNC(=O)CSCCNC(=O)CCNC(=O)[C@H](O)C(C)(C)COP(=O)(O)OP(=O)(O)OC[C@H]1O[C@@H](n2cnc3c(N)ncnc32)[C@H](O)[C@@H]1OP(=O)(O)O)C(N)=O [compound 4, Lys-CoA]",Competition of Mof-3 interaction,Mof,competed
same,Competition of interaction of pCAF with 2,pCAF [5],no similar effect
TAMRA-H3K14-CoA [compound 7],Fluorescent detection of pCAF at high probe concentration,pCAF [4],facilitate fluorescent detection
H3K14-CoA-BPyne [compound 2],Relative labeling of pCAF at low probe concentration,"pCAF [4]; 0.1 μM probe, clickable 2 compared with fluorescent probe 7",visibly greater labeling
same,Fluorescent detection of pCAF at high probe concentration,pCAF [4],facilitate fluorescent detection
same,Fraction of pCAF covalently labeled (cross-linking yield),"pCAF [4]; 60 min irradiation at 365 nm on ice, gel densitometry",33–40%
same,Labeling of pCAF in KAT cocktail,pCAF [4],clear preference for specific labeling
same,Fluorescent labeling of purified recombinant pCAF,pCAF [4]; [8],reacted effectively
same,Labeling of Mof in KAT cocktail,Mof (MYST1),"weaker, but detectable, labeling"
same,Labeling of pCAF in HEK-293 overexpression extracts,pCAF [1]; fluorescence gel,Weak but detectable labeling
same,Lower limit of pCAF detection,"pCAF [7]; 2 (1 μM), HeLa proteome (7 μg), gel-based",2.5 pmols
same,Detection of pCAF spiked into HeLa cell proteomes,pCAF [7]; pCAF 7 pmols,capable of detecting
